Key:
SGK1 [1] = molecular target: T1, SGK1 (Homo sapiens, UniProt O00141); experiment: SGK1 protein kinase inhibition (enzyme), filter binding method; format: biochemical
T1 sequence (O00141 1-431): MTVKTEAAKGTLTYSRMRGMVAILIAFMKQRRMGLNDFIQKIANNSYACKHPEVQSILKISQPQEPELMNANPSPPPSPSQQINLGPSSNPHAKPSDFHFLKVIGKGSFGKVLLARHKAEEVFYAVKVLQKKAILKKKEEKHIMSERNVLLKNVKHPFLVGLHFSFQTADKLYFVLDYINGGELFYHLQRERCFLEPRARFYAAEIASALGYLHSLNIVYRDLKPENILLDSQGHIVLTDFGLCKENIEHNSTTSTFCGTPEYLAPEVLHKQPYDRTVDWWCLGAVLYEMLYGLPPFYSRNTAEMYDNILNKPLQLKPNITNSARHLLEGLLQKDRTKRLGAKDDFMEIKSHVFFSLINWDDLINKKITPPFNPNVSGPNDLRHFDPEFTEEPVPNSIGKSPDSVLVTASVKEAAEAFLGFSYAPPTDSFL
Source text: Other assays are known from the literature and could readily be performed by the person skilled in the art (see, for example, Dhanabal et al., Cancer Res. 59:189-197; Xin et al., J. Biol. Chem. 274:9116-9121; Sheu et al., Anticancer Res. 18:4435-4441; Ausprunk et al., Dev. Biol. 38:237-248; Gimbrone et al., J. Natl. Cancer Inst. 52:413-427; Nicosia et al., In Vitro 18:538-549). The inhibition of SGK1 protein kinase can be determined in the filter binding method.

SGK1 [2] = molecular target: T1, SGK1; experiment: Cell assay: P-NDRG1 level in HeLa cells (western blot), intracellular SGK1 inhibition; format: cell-based; parameters: endogenous in cells; host or cells: HeLa; conditions: decrease of NDRG1 phosphorylation, 24 hrs incubation
Experimental: HeLa cells are plated out with a density of 10−20×10^3 cells/cm^2 in 6-well MTPs (Costar Corning, #3506) in DMEM medium, supplemented with 10% foetal calf serum (FCS), 2 mM glutamine and 1 mM sodium pyruvate. After 24 hrs. at 37° C. and with 5% CO2 in a cell incubator, each well is furthermore supplemented with 25 μl of a 100× DMSO solution of the compound; this solution is diluted 100-fold in the supernatant of the cell culture, which results in the expected SGK1 inhibitor concentration at a 1% DMSO concentration. The cells are incubated under the same conditions for a further 24 hrs.
The supernatants are subsequently removed (by suction), and the cells are washed once with 1 ml/well of ice-cold phosphate-buffered saline solution (PBS). 250 μl of the ice-cold lysis buffer (50 mM tris/HCl, 1 mM EDTA, 1 mM EGTA, 0.5 mM activated Na3VO4, 10 mM glycerophosphate, 50 mM NaF, 5 mM Na pyrophosphate, 1% Triton X100, 1 mM DTT, 0.1 mM PMSF and 1 μM microcystine and in each case 1 μg/ml of aprotinin, pepstatin or leupeptin) are added to each well. The cells are scraped down from the base of the well, and the cell suspension is sucked up several times with an Eppendorf pipette; the cells are thereby lysed and homogenised. […] The binding of the primary antibody was determined using antisheep IG antibody conjugated to […] peroxidase (1:5000 dilution, Calbiochem), followed by amplified chemiluminescence (SuperSignal West Dura Extended Duration, Pierce). […] The NDRG1 levels are determined after stripping of the nitrocellulose membranes using Restore™ western blot stripping buffer and the Pierce method.
On use of the P-NDRG1 antiserum, a decrease in the phosphorylation level of the NDRG1 protein can easily be detected. The decrease in the intensity of the bands in the western blot on use of the P-NDRG1 antiserum is determined, plotted against the cell culture medium concentration of the SGK1 inhibitor in a semi-logarithmic diagram and used for assessment of the intracellular inhibitor efficacy ([…]) of the SGK1 inhibitor. […]

| Compound | IC50 (SGK1 [1]) [nM] | IC50 (SGK1 [2]) [nM] | melting point [°C] |
| --- | --- | --- | --- |
| CCc1c(C(=O)NNC(=O)Cc2ccc(F)c(F)c2)ccc(O)c1C [Compound 3, N′-[2-(3,4-Difluorophenyl)acetyl]-2-ethyl-4-hydroxy-3-methylbenzohydrazide] | > 10 | > 500 | – |
| CCc1c(C(=O)NNC(=O)Cc2cc(F)c(F)cc2OC)ccc(O)c1C [Compound 2, N′-[2-(3,4-Difluoro-6-methoxyphenyl)acetyl]-2-ethyl-4-hydroxy-3-methyl-benzohydrazide] | > 10 | > 500 | 220.7 |
| CCc1c(C(=O)NNC(=O)Cc2cc(F)c(F)c(OC)c2)ccc(O)c1C [Compound 1, N′-[2-(3,4-difluoro-5-methoxyphenyl)acetyl]-2-ethyl-4-hydroxy-3-methyl-benzohydrazide] | < 10 | < 500 | 217 |
